This note sets out measurements from patent publication US11998539B2, “Substituted aminoquinolones as DGKalpha inhibitors for immune activation” (Bayer Aktiengesellschaft, priority 2019, dated 2024).

The structures appear in SMILES notation. pIC50: −log10 of the molar value.

Sequence of DGKα (P23743 other isoform, or with tags, fused parts or gaps): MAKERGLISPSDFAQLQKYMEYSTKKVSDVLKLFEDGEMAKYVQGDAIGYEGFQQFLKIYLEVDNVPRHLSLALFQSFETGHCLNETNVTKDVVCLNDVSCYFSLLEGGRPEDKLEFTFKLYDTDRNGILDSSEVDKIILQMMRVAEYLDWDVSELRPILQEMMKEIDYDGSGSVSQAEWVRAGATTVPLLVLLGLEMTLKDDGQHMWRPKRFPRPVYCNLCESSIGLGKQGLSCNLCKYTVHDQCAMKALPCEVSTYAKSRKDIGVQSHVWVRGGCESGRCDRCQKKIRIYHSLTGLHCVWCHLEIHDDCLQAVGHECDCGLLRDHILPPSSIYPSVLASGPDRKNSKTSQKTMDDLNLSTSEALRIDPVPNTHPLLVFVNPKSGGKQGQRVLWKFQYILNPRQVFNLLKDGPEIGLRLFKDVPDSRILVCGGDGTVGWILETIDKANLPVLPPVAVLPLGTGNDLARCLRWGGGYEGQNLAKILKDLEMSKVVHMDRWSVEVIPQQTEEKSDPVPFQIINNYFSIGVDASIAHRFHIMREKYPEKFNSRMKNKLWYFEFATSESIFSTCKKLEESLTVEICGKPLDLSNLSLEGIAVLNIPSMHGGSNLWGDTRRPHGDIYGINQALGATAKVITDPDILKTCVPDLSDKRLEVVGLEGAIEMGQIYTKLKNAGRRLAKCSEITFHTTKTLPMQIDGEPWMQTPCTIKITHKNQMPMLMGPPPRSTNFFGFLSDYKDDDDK

This assay concerns the target DGKα (Homo sapiens (Human), UniProt P23743). The experiment in a line: Human DGKα kinase activity inhibition assay (ADP-Glo). Particulars: recombinant full-length human DGKα, 55 μM ATP, 7 μM 1,2-dioleoyl-sn-glycerol, read-out: IC50 values of examples in in vitro human DGKa kinase activity inhibition assays. It is filed as biochemical. The method in brief:
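Recombinant full-length human DGKα (C-terminal FLAG, from insect cells) phosphorylated 1,2-dioleoyl-sn-glycerol presented in octyl-glucopyranoside micelles. ADP formed was quantified by ADP-Glo luminescence. Compounds were added from 100-fold DMSO stocks.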
A general note: In ADP-Glo the light output rises with the ADP produced.
`Cc1ccc2oc(C3CCN(c4c(C#N)c(=O)n(C)c5cc(OCC(=O)O)ccc45)CC3)nc2c1` [Example 416, ({3-cyano-1-methyl-4-[4-(5-methyl-1,3-benzoxazol-2-yl)piperidin-1-yl]-2-oxo-1,2-dihydroquinolin-7-yl}oxy)acetic acid]: the pIC50 is 7.47.

In the case of `Cn1c(=O)c(C(N)=O)c(N2CCC(c3nc(-c4cccnc4)no3)CC2)c2ccccc21` [Example 475, 1-methyl-2-oxo-4-{4-[3-(pyridin-3-yl)-1,2,4-oxadiazol-5-yl]piperidin-1-yl}-1,2-dihydroquinoline-3-carboxamide], the pIC50 is 6.65.

In the case of `Cn1c(=O)c(C#N)c(N2CCC(c3ccc(Cl)cc3)CC2)c2ccccc21` [Example 54, 4-[4-(4-chlorophenyl)piperidin-1-yl]-1-methyl-2-oxo-1,2-dihydroquinoline-3-carbonitrile], the pIC50 is 7.85.

`COc1ccc(C2CCN(c3c(C#N)c(=O)n(C)c4ccc(C5=CCOCC5)cc34)CC2)cc1` [Example 180, 6-(3,6-dihydro-2H-pyran-4-yl)-4-[4-(4-methoxyphenyl)piperidin-1-yl]-1-methyl-2-oxo-1,2-dihydroquinoline-3-carbonitrile]: the pIC50 was 5.82.

With `Cc1ccccc1-c1nnc(C2CCN(c3c(C(N)=O)c(=O)n(C)c4cc(O)c(Br)cc34)CC2)o1` [Example 529, 6-bromo-7-hydroxy-1-methyl-4-{4-[5-(2-methylphenyl)-1,3,4-oxadiazol-2-yl]piperidin-1-yl}-2-oxo-1,2-dihydroquinoline-3-carboxamide], the pIC50 was 7.34.

Regarding `Cc1ccc2c(c1)c(N1CCC(c3nc4ccccc4o3)CC1)c(C(N)=O)c(=O)n2C` [Example 193, 4-[4-(1,3-benzoxazol-2-yl)piperidin-1-yl]-1,6-dimethyl-2-oxo-1,2-dihydroquinoline-3-carboxamide], the pIC50 was 8.62.

In the case of `Cc1ccc2oc([C@H]3CCN(c4c(C#N)c(=O)n(C)c5ccccc45)[C@@H](C)C3)nc2c1` [Example 234, 1-methyl-4-[(2S,4S)-2-methyl-4-(5-methyl-1,3-benzoxazol-2-yl)piperidin-1-yl]-2-oxo-1,2-dihydroquinoline-3-carbonitrile], the pIC50 is 8.74.

For the compound `Cc1ccc2oc(C3(C)CCN(c4c(C#N)c(=O)n(C)c5c(OC6COC6)cccc45)CC3)nc2c1` [Example 253, 1-methyl-4-[4-methyl-4-(5-methyl-1,3-benzoxazol-2-yl)piperidin-1-yl]-8-[(oxetan-3-yl)oxy]-2-oxo-1,2-dihydroquinoline-3-carbonitrile], the pIC50 was 7.85.

With `CCCOc1ccc2c(N3CCC(c4nc5ccccc5s4)CC3)c(C#N)c(=O)n(C)c2c1` [Example 270, 4-[4-(1,3-benzothiazol-2-yl)piperidin-1-yl]-1-methyl-2-oxo-7-propoxy-1,2-dihydroquinoline-3-carbonitrile], the pIC50 was 7.14.

Consider `CCC(C)c1ccc2c(c1)c(N1CCC(C)(c3nc4cc(C)ccc4o3)CC1)c(C#N)c(=O)n2C` (stereo not shown) [Example 211, 6-(butan-2-yl)-1-methyl-4-[4-methyl-4-(5-methyl-1,3-benzoxazol-2-yl)piperidin-1-yl]-2-oxo-1,2-dihydroquinoline-3-carbonitrile], for which the pIC50 was 6.34.

Turning to `Cc1ccc2oc(C3(C)CCN(c4c(C#N)c(=O)n(C)c5cc(O)c(Br)cc45)CC3)nc2c1` [Example 423, 6-bromo-7-hydroxy-1-methyl-4-[4-methyl-4-(5-methyl-1,3-benzoxazol-2-yl)piperidin-1-yl]-2-oxo-1,2-dihydroquinoline-3-carbonitrile], the negative logarithm of the IC50 (pIC50) was 9.00.

With `Cc1ccc2oc(C3(C)CCN(c4c(C#N)c(=O)n(C)c5cc(C6COC6)ccc45)CC3)nc2c1` [Example 261, 1-methyl-4-[4-methyl-4-(5-methyl-1,3-benzoxazol-2-yl)piperidin-1-yl]-7-(oxetan-3-yl)-2-oxo-1,2-dihydroquinoline-3-carbonitrile], the pIC50 was 7.46.

`Cc1ccc2oc(C3CCN(c4c(C(N)=O)c(=O)n(C)c5cc(N(C)CC#N)ccc45)CC3)nc2c1` [Example 500, 7-[(cyanomethyl)(methyl)amino]-1-methyl-4-[4-(5-methyl-1,3-benzoxazol-2-yl)piperidin-1-yl]-2-oxo-1,2-dihydroquinoline-3-carboxamide]: the pIC50 is 9.15.

For the compound `COCCc1ccc2oc(C3CCN(c4c(C(N)=O)c(=O)n(C)c5ccccc45)CC3)nc2c1` [Example 295, 4-{4-[5-(2-methoxyethyl)-1,3-benzoxazol-2-yl]piperidin-1-yl}-1-methyl-2-oxo-1,2-dihydroquinoline-3-carboxamide], the pIC50 is 8.02.

`Cn1c(=O)c(C#N)c(N2CCC(c3nc4ccccc4s3)CC2)c2cc(Br)ccc21` [Example 169, 4-[4-(1,3-benzothiazol-2-yl)piperidin-1-yl]-6-bromo-1-methyl-2-oxo-1,2-dihydroquinoline-3-carbonitrile]: the pIC50 was 9.22.

`COCCc1ccc2nc(C3CCN(c4c(C(N)=O)c(=O)n(C)c5ccccc45)CC3)oc2c1` [Example 317, 4-{4-[6-(2-methoxyethyl)-1,3-benzoxazol-2-yl]piperidin-1-yl}-1-methyl-2-oxo-1,2-dihydroquinoline-3-carboxamide]: the pIC50 was 7.77.

Take `CCC1(c2nc3cc(C)ccc3o2)CCN(c2c(C#N)c(=O)n(C)c3ccccc23)CC1` [Example 140, 4-[4-ethyl-4-(5-methyl-1,3-benzoxazol-2-yl)piperidin-1-yl]-1-methyl-2-oxo-1,2-dihydroquinoline-3-carbonitrile]: the pIC50 was 8.80.

`Cc1cc2c(N3CCC(c4ccn(-c5ccccc5C)n4)CC3)c(C#N)c(=O)n(C)c2cc1NCCO` [Example 561, 7-[(2-hydroxyethyl)amino]-1,6-dimethyl-4-{4-[1-(2-methylphenyl)-1H-pyrazol-3-yl]piperidin-1-yl}-2-oxo-1,2-dihydroquinoline-3-carbonitrile]: the pIC50 was 8.85.

With `Cc1cc2c(N3CCC(c4ccn(-c5ccccc5C)n4)CC3)c(C#N)c(=O)n(C)c2cc1Br` [Example 560, 7-bromo-1,6-dimethyl-4-{4-[1-(2-methylphenyl)-1H-pyrazol-3-yl]piperidin-1-yl}-2-oxo-1,2-dihydroquinoline-3-carbonitrile], the pIC50 is 6.98.

On to `Cc1ccc2oc(C3CCN(c4c(C#N)c(=O)n(C)c5cc(NC6COC6)c(C)cc45)CC3)nc2c1` [Example 549, 1,6-dimethyl-4-[4-(5-methyl-1,3-benzoxazol-2-yl)piperidin-1-yl]-7-[(oxetan-3-yl)amino]-2-oxo-1,2-dihydroquinoline-3-carbonitrile], for which the pIC50 is 9.22.

For `COc1ccc(C2CCN(c3c(C#N)c(=O)n(C)c4ccc(S(C)(=O)=O)cc34)CC2)cc1` [Example 178, 6-(methanesulfonyl)-4-[4-(4-methoxyphenyl)piperidin-1-yl]-1-methyl-2-oxo-1,2-dihydroquinoline-3-carbonitrile], the pIC50 is 6.53.

Consider `Cc1ccc2oc(C3CCN(c4c(C#N)c(=O)n(C)c5ccc(P(C)(C)=O)cc45)CC3)nc2c1` [Example 338, 6-(dimethylphosphoryl)-1-methyl-4-[4-(5-methyl-1,3-benzoxazol-2-yl)piperidin-1-yl]-2-oxo-1,2-dihydroquinoline-3-carbonitrile], for which the pIC50 was 7.07.

With `Cc1ccc2oc(C3CCN(c4c(C#N)c(=O)n(C)c5cc(OC6CCOCC6)ccc45)CC3)nc2c1` [Example 382, 1-methyl-4-[4-(5-methyl-1,3-benzoxazol-2-yl)piperidin-1-yl]-7-[(oxan-4-yl)oxy]-2-oxo-1,2-dihydroquinoline-3-carbonitrile], the pIC50 is 7.89.

For the compound `Cn1c(=O)c(C#N)c(N2CCC(c3ccccc3)CC2)c2ccc(OC3CC3)cc21` [Example 264, 7-(cyclopropyloxy)-1-methyl-2-oxo-4-(4-phenylpiperidin-1-yl)-1,2-dihydroquinoline-3-carbonitrile], the pIC50 is 7.31.

In the case of `Cn1c(=O)c(C#N)c(N2CCC(c3nc4ccccc4o3)CC2)c2cccc(F)c21` [Example 155, 4-[4-(1,3-benzoxazol-2-yl)piperidin-1-yl]-8-fluoro-1-methyl-2-oxo-1,2-dihydroquinoline-3-carbonitrile], the pIC50 is 7.22.

As to `Cc1ccc2oc(C3(C)CCN(c4c(C#N)c(=O)n(C)c5cc(F)ccc45)CC3)nc2c1` [Example 237, 7-fluoro-1-methyl-4-[4-methyl-4-(5-methyl-1,3-benzoxazol-2-yl)piperidin-1-yl]-2-oxo-1,2-dihydroquinoline-3-carbonitrile], the pIC50 is 8.30.

`Cc1ccc2oc(C3CCN(c4c(C#N)c(=O)n(C)c5ccc(C)cc45)CC3)nc2c1` [Example 166, 1,6-dimethyl-4-[4-(5-methyl-1,3-benzoxazol-2-yl)piperidin-1-yl]-2-oxo-1,2-dihydroquinoline-3-carbonitrile]: the pIC50 is 8.66.

For the compound `Cc1ccc2oc(C3CCN(c4c(C#N)c(=O)n(C)c5cc(O)c(Br)cc45)CC3)nc2c1` [Example 422, 6-bromo-7-hydroxy-1-methyl-4-[4-(5-methyl-1,3-benzoxazol-2-yl)piperidin-1-yl]-2-oxo-1,2-dihydroquinoline-3-carbonitrile], the pIC50 was 9.15.

Take `Cc1ccc2nc(C3(C)CCN(c4c(C#N)c(=O)n(C)c5ccc(Cl)cc45)CC3)oc2c1` [Example 192, 6-chloro-1-methyl-4-[4-methyl-4-(6-methyl-1,3-benzoxazol-2-yl)piperidin-1-yl]-2-oxo-1,2-dihydroquinoline-3-carbonitrile]: the pIC50 was 5.87.

As to `COc1ccc(-c2noc(C3CCN(c4c(C#N)c(=O)n(C)c5ccccc45)CC3)n2)cc1` [Example 349, 4-{4-[3-(4-methoxyphenyl)-1,2,4-oxadiazol-5-yl]piperidin-1-yl}-1-methyl-2-oxo-1,2-dihydroquinoline-3-carbonitrile], the pIC50 is 7.82.

In the case of `Cn1c(=O)c(C(N)=O)c(N2CCC(C)(c3nc4ccccc4o3)CC2)c2ccc(F)cc21` [Example 303, 4-[4-(1,3-benzoxazol-2-yl)-4-methylpiperidin-1-yl]-7-fluoro-1-methyl-2-oxo-1,2-dihydroquinoline-3-carboxamide], the pIC50 was 8.72.

For orientation: pIC50 means the IC50 on a negative log10 scale, so that one unit is a factor of ten.
